Tests used:
Assay type in all cases: physicochemical
[1] = Alcohol amine added to aqueous PPh solution until single phase observed; conditions: aqueous PPh (34-37 wt % PPh, 39-42 wt % water), room temperature, Formulations B-E
[2] = Alcohol amine added to aqueous EPh solution until single phase observed; conditions: for amount added until a single phase solution was observed: 100 grams total, room temperature
[3] = Alcohol amine added to aqueous benzyl alcohol solution until single phase observed; conditions: aqueous benzyl alcohol (37 wt %, water 42 wt %), room temperature, Formulation F
[4] = listed as of Table 4 with 1 % Eph in H2O, Eph 1 wt % normalized
[5] = listed as of Table 4 with 2.5 % Eph in H2O, Eph 2 wt % normalized
[6] = listed as of Table 4 with 5 % Eph in H2O, Eph 4 wt % normalized
[7] = listed as of Table 4 with 10 % Eph in H2O, Eph 7-8 wt % normalized
[8] = listed as of Table 4 with 15 % Eph in H2O, Eph 10-12 wt % normalized
[9] = listed as of Table 4 with 20 % Eph in H2O, Eph 14-15 wt % normalized
[10] = listed as of Table 4 with 30 % Eph in H2O, Eph 21-23 wt % normalized
[11] = listed as of Table 4 with 50 % Eph in H2O, Eph 36-40 wt % normalized
[12] = listed as of Table 4 with 75 % Eph in H2O, Eph 58-64 wt % normalized

| SMILES | alcohol amine at single phase, normalized on total weight % [1] [wt %] | amount added until a single phase solution was observed ([2]; 1 % Eph in H2O) [Grams] | amount added until a single phase solution was observed ([2]; 2.5 % Eph in H2O) [Grams] | amount added until a single phase solution was observed ([2]; 5 % Eph in H2O) [Grams] | amount added until a single phase solution was observed ([2]; 10 % Eph in H2O) [Grams] | amount added until a single phase solution was observed ([2]; 15 % Eph in H2O) [Grams] | amount added until a single phase solution was observed ([2]; 20 % Eph in H2O) [Grams] | amount added until a single phase solution was observed ([2]; 30 % Eph in H2O) [Grams] | amount added until a single phase solution was observed ([2]; 50 % Eph in H2O) [Grams] | amount added until a single phase solution was observed ([2]; 75 % Eph in H2O) [Grams] | alcohol amine at single phase, normalized to 100 weight % of water, alcohol amine and EPh [2, 4] [wt %] | alcohol amine at single phase, normalized to 100 weight % of water, alcohol amine and EPh [2, 5] [wt %] | alcohol amine at single phase, normalized to 100 weight % of water, alcohol amine and EPh [2, 6] [wt %] | alcohol amine at single phase, normalized to 100 weight % of water, alcohol amine and EPh [2, 7] [wt %] | alcohol amine at single phase, normalized to 100 weight % of water, alcohol amine and EPh [2, 8] [wt %] | alcohol amine at single phase, normalized to 100 weight % of water, alcohol amine and EPh [2, 9] [wt %] | alcohol amine at single phase, normalized to 100 weight % of water, alcohol amine and EPh [2, 10] [wt %] | alcohol amine at single phase, normalized to 100 weight % of water, alcohol amine and EPh [2, 11] [wt %] | alcohol amine at single phase, normalized to 100 weight % of water, alcohol amine and EPh [2, 12] [wt %] | alcohol amine at single phase, normalized on total weight % [3] [wt %] |
| --- | --- | --- | --- | --- | --- | --- | --- | --- | --- | --- | --- | --- | --- | --- | --- | --- | --- | --- | --- | --- |
| NCCO [MEA, monoethanolamine] | 25 | 2.3 | 12.7 | 26.9 | 40.5 | 45.4 | 44 | 40 | 34 | 26.1 | 2 | 11 | 21 | 29 | 32 | 30 | 29 | 26 | 20 | – |
| CC(O)CN (stereo not shown) [MIPA, monoisopropanolamine] | 21 | 3.5 | 16 | 26.8 | 32.2 | 33.5 | 32.9 | 31.1 | 26 | 17.5 | 3 | 14 | 21 | 24 | 25 | 25 | 24 | 20 | 15 | 21 |
| CC(C)(N)CO [AMP, 2-amino-2-methyl-1-propanol] | 21 | 4.8 | 12.3 | 21.5 | 26.8 | 28.7 | 29.2 | 29 | 26.7 | 17.8 | 5 | 11 | 18 | 21 | 22 | 23 | 23 | 22 | 15 | – |

From US7008911B2, “Non-surfactant solubilizing agent” (Ecolab, Inc., priority 2002, dated 2006)
